US6787532B2, “Formulation containing anti-inflammatory androstane derivatives” (SmithKline Beecham Corporation, priority 2000, dated 2004)
Values after ≈ are worked out from the molar mass of the structure shown. “Also recorded” adds a separate entry of the source. Like-named read-outs stand apart in the source and are kept apart here.

Legend:
[1] = Solubility in water with surfactants and co-solvating agents; assay type: physicochemical
From the text: As noted above, this improved process permits solutions of higher concentration to be prepared than is possible by conventional techniques.

lung eosinophilia = test: Ovalbumin sensitised Brown Norway rat eosinophilia model; assay type: in vivo; settings: single intra-tracheal dose of 30 μg, suspension in saline, 30 min prior to ovalbumin challenge
Method: Pharmacological activity in vivo was assessed in an-ovalbumin sensitised Brown Norway rat eosinophilia model. This model is designed to mimic allergen induced lung eosinophilia, a major component of lung inflammation in asthma.

[2] = Pharmacokinetics after intravenous and oral dosing in rats; assay type: in vivo; settings: male, Wistar Han, plasma, rat; for clearance: IV 0.1 mg/kg
[3] = Pharmacokinetics after intravenous administration in the anaesthetised pig; assay type: in vivo; settings: intravenous mixture of the two compounds at 0.1 mg/kg
From the text: The clearance of these two glucocorticoids is similar is this experimental pig model.

[4] = Pharmacokinetics after intra-tracheal dry powder dosing in the pig; assay type: in vivo; settings: for time after dosing up to which quantifiable in plasma / Cmax / AUC(0-inf): pig; for time after dosing up to which quantifiable in plasma: intra-tracheal 1 mg, LLOQ 10 and 20 pg/mL; for Cmax / AUC(0-inf): plasma, 1 mg; for Cmax: inhaled or intranasal; for AUC(0-inf): iv, compound (I) calculated with IV half-life
Method: Serial blood samples were taken for up to 8 h following dosing.

thymus involution = test: Rat model of thymus involution; assay type: in vivo; settings: 3 daily IT doses of 100 μg
glucocorticoid receptor = target: T1, glucocorticoid receptor (Homo sapiens, UniProt P04150); test: In vitro functional glucocorticoid assays, metabolite versus parent; assay type: cell-based
T1 sequence (P04150 1-777): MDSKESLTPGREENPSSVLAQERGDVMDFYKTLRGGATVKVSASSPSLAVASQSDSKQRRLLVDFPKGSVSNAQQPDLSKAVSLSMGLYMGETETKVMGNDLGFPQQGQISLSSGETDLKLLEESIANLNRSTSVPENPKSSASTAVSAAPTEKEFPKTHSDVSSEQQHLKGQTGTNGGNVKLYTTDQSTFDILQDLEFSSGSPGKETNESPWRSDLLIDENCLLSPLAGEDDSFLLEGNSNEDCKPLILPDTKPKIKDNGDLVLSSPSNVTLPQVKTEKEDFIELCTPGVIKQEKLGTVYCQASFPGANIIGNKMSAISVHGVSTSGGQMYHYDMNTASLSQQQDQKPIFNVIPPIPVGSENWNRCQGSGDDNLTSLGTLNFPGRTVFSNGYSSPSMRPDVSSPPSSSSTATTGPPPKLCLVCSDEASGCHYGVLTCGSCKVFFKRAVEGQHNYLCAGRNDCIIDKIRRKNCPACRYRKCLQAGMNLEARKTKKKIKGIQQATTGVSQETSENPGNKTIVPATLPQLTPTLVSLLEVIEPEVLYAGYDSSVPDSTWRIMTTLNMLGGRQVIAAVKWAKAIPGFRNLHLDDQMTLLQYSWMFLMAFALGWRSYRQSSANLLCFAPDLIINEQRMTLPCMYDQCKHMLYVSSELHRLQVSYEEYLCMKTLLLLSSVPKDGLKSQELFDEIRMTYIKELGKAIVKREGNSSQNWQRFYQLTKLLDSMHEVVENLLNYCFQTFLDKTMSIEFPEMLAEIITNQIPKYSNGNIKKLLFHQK
Method: Compound (I) wherein R represents furan-2-yl undergoes highly efficient hepatic metabolism to yield the 17-β carboxylic acid (X) as the sole major metabolite in rat and human in vitro systems. […] Pharmacological activity was assessed in a functional in vitro assay of glucocorticoid agonist activity which is generally predictive of anti-inflammatory or anti-allergic activity in vivo.

[5] = target: T2, glucocorticoid receptor (GR) (Homo sapiens, UniProt P04150); test: Transactivation (GR): A549 cells with renilla luciferase reporter under glucocorticoid response elements; assay type: cell-based; settings: renilla luciferase GRE reporter, read-out: Transactivation (GR) ED50
From the text: (§1) The glucocorticoid receptor (GR) can function in at least two distinct mechanisms, by upregulating gene expression through the direct binding of GR to specific sequences in gene promotors, and by downregulating gene expression that is being driven by other transcription factors (such as NFκB or AP-1) through their direct interaction with GR.
(§2) The first cell line contains the firefly luciferase reporter gene under the control of a synthetic promoter that specifically responds to activation of the transcription factor NFκB when stimulated with TNFα. The second cell line contains the renilla luciferase reporter gene under the control of a synthetic promotor that comprises 3 copies of the consensus glucocorticoid response element, and which responds to direct stimulation by glucocorticoids. Simultaneous measurement of transactivation and transrepression was conducted by mixing the two cell lines in a 1:1 ratio in 96 well plate (40,000 cells per well) and growing overnight at 37° C. Test compounds were dissolved in DMSO, and added to the cells at a final DMSO concentration of 0.7%. After incubation for 1 h 0.5 ng/ml TNFα (R&D Systems) was added and after a further 15 hours at 37° C., the levels of firefly and renilla luciferase were measured using the Packard Firelite kit following the manufacturers' directions. Dose response curves were constructed from which EC50 values were determined.

[6] = target: T2, glucocorticoid receptor (GR); test: Transrepression (NFκB): A549 cells with firefly luciferase NFκB reporter, TNFα stimulated; assay type: cell-based; settings: 0.5 ng/ml TNFα, read-out: Transrepression (NFκB) ED50
From the text: as §1, §2

[7] = 5% Tyloxapol, aqueous with cosolvent or surfactant or cyclodextrin, 5% Tyloxapol, process performed at 60-70° C., read-out: solubility
[8] = 5% Tyloxapol, aqueous with cosolvent or surfactant or cyclodextrin, 5% Tyloxapol, process performed at room temperature, read-out: solubility
[9] = water, aqueous with cosolvent or surfactant or cyclodextrin, in water, Triton X-100 2% w/w, read-out: Solubility
[10] = water, aqueous with cosolvent or surfactant or cyclodextrin, in water, Tyloxapol 2% w/w, read-out: Solubility
[11] = water, aqueous with cosolvent or surfactant or cyclodextrin, in water, Tyloxapol 5% w/w and PEG200 10% w/w, read-out: Solubility
[12] = water, aqueous with cosolvent or surfactant or cyclodextrin, in water, Tyloxapol 5% w/w, read-out: Solubility
[13] = water, in water, no surfactant, read-out: Solubility
[14] = Pig 1, intra-tracheal dry powder 1 mg
[15] = Pig 2, intra-tracheal dry powder 1 mg

C[C@@H]1C[C@H]2[C@@H]3C[C@H](F)C4=CC(=O)C=C[C@]4(C)[C@@]3(F)[C@@H](O)C[C@]2(C)[C@@]1(OC(=O)c1ccco1)C(=O)SCF [Compound of Formula (I), 6α, 9α-difluoro-17α-[(2-furanylcarbonyl)oxy]-11β-hydroxy-16α-methyl-3-oxo-androsta-1,4-diene-17β-carbothioic acid S-fluoromethyl ester]
solubility [1, 7]: 344 µg/mL
solubility [1, 8]: 233 µg/mL
solubility ([1]; water, aqueous with cosolvent or surfactant or cyclodextrin, in water, Triton X-100 0.5% w/w, read-out: Solubility): 18 µg/mL
solubility [1, 9]: 266 µg/mL
solubility ([1]; water, aqueous with cosolvent or surfactant or cyclodextrin, in water, Triton X-100 5% w/w and PEG200 10% w/w, read-out: Solubility): 840 µg/mL
solubility ([1]; water, aqueous with cosolvent or surfactant or cyclodextrin, in water, Triton X-100 5% w/w, read-out: Solubility): 549 µg/mL
solubility ([1]; water, aqueous with cosolvent or surfactant or cyclodextrin, in water, Triton X-305 5% w/w, read-out: Solubility): 204 µg/mL
solubility [1, 10]: 95 µg/mL
solubility ([1]; water, aqueous with cosolvent or surfactant or cyclodextrin, in water, Tyloxapol 5% w/w and Dextrose 4% w/w, read-out: Solubility): 526 µg/mL
solubility [1, 11]: 836 µg/mL
solubility ([1]; water, aqueous with cosolvent or surfactant or cyclodextrin, in water, Tyloxapol 5% w/w and Propylene glycol 10% w/w, read-out: Solubility): 422 µg/mL
solubility ([1]; water, aqueous with cosolvent or surfactant or cyclodextrin, in water, Tyloxapol 5% w/w, no co-solvating agent, read-out: Solubility): 344 µg/mL
solubility [1, 12]: 307 µg/mL
solubility ([1]; water, aqueous with cosolvent or surfactant or cyclodextrin, in water, Tyloxapol 6% w/w, read-out: Solubility): 346 µg/mL
solubility ([1]; water, aqueous with cosolvent or surfactant or cyclodextrin, in water, Tyloxapol 7.5% w/w, read-out: Solubility): 576 µg/mL
solubility ([1]; water, aqueous with cosolvent or surfactant or cyclodextrin, in water, Tyloxapol 10% w/w, read-out: Solubility): 585 µg/mL
solubility [1, 13]: < 1 µg/mL
inhibition of lung eosinophilia (lung eosinophilia): 69%
clearance [2]: 47.3 mL/min/kg
bioavailability ([2]; oral, 0.1 mg/kg, oral 0.1 mg/kg and IV 0.1 mg/kg): 0.9%
pharmacokinetic parameters, compound (I) versus fluticasone propionate [3]: the same
systemic exposure compared to fluticasone propionate ([4]; anaesthetised pigs, dry powder delivery to the lungs): markedly reduced systemic exposure; also recorded: significantly lower exposure
time after dosing up to which quantifiable in plasma [4]: up to 2 hours
Cmax [4, 14]: 0.117 ng/mL
Cmax [4, 15]: 0.081 ng/mL
AUC(0-inf) [4, 14]: 0.254 ng·h/mL
AUC(0-inf) [4, 15]: 0.221 ng·h/mL
reduction of thymus weight (thymus involution): 67%

CCC(=O)O[C@]1(C(=O)SCF)[C@H](C)C[C@H]2[C@@H]3C[C@H](F)C4=CC(=O)C=C[C@]4(C)[C@@]3(F)[C@@H](O)C[C@@]21C [Fluticasone propionate, 6α, 9α-Difluoro-17α-(1-oxopropoxy)-11β-hydroxy-16α-methyl-3-oxo-androsta-1,4-diene-17-0-carbothioic acid S-fluoromethyl ester, reference compound]
solubility [1, 7]: 133 µg/mL (≈ 266 µM)
solubility [1, 8]: 87 µg/mL (≈ 174 µM)
solubility ([1]; in water, Labrasol 10% w/w): None detected
solubility ([1]; in water, Triton X-45 5% w/w): None detected
solubility ([1]; water, aqueous with cosolvent or surfactant or cyclodextrin, in water, Sodium chenodesoxycholate 5% w/w, read-out: Solubility): 5.9 µg/mL (≈ 11.8 µM)
solubility ([1]; water, aqueous with cosolvent or surfactant or cyclodextrin, in water, Sodium cholate 2% w/w, read-out: Solubility): 11 µg/mL (≈ 22 µM)
solubility ([1]; water, aqueous with cosolvent or surfactant or cyclodextrin, in water, Sodium cholate 20% w/w, read-out: Solubility): 140 µg/mL (≈ 280 µM)
solubility [1, 9]: 69 µg/mL (≈ 138 µM)
solubility [1, 10]: 41 µg/mL (≈ 81.9 µM)
solubility [1, 11]: 207 µg/mL (≈ 414 µM)
solubility ([1]; water, aqueous with cosolvent or surfactant or cyclodextrin, in water, Tyloxapol 5% w/w and Phospatidyl choline 1% w/w, read-out: Solubility): 197 µg/mL (≈ 394 µM)
solubility [1, 12]: 133 µg/mL (≈ 266 µM)
solubility [1, 13]: < 1 µg/mL
clearance [2]: 45.2 mL/min/kg
pharmacokinetic parameters, compound (I) versus fluticasone propionate [3]: the same
time after dosing up to which quantifiable in plasma [4]: up to 8 hours
Cmax [4, 14]: 0.277 ng/mL
Cmax [4, 15]: 0.218 ng/mL
AUC(0-inf) [4, 14]: 0.455 ng·h/mL
AUC(0-inf) [4, 15]: 0.495 ng·h/mL
reduction of thymus weight (thymus involution): 78%

C[C@@H]1CC2C3C[C@H](F)C4=CC(=O)C=C[C@]4(C)[C@@]3(F)[C@@H](O)C[C@]2(C)[C@@]1(OC(=O)c1ccco1)C(=O)O (stereo partly shown) [Metabolite (X)]
fold less active than the parent compound (glucocorticoid receptor): > 1000 fold
EC50 [5]: < 0.25 µM
EC50 [6]: > 1 µM
